Results as given in patent publication US20230190707A1, “COMPOSITIONS AND METHODS FOR ENHANCING CANCER IMMUNOTHERAPY” (FRED HUTCHINSON CANCER CENTER, priority 2020, published 2023).

Experiments:
[1] = tested on: CD5^+ splenic T cells; assay: Anti-CD3/CD28 T cell activation and proliferation (CFSE); type: cell-based, mouse
Description: Cell lines were grown with half-log10 concentrations of the indicated drug in 4 to 8 technical replicates under standard conditions until the control condition (DMSO or vehicle) was confluent by microscopy. For tumor cell lines, viable cells were quantified via the CellTiter-Glo® assay (Promega Cat. G7573) as per manufacturer instructions. For the ex vivo proliferation of T cells, viable cells were instead quantified via flow cytometry using counting beads. The percentage or number of viable cells with drug treatment was calculated relative to DMSO control (as 100%). […] For absolute cell number, Annexin V+, CD25+, and PD1+ flow cytometry data presented in Figure S4, dose-response models and IC50 values were computed using the R language's dre package (Ritz, C., et al. (2015). Dose-Response Analysis Using R. PLoS One 10, e0146021).
(§1) Plates were coated with 10 μg/mL anti-CD3 (clone 145-2C11, Biolegend Cat. 100302) and 2 μg/mL anti-CD28 (clone 37.51, Biolegend Cat. 102102) in PBS overnight at 4° C. and washed twice with cold PBS prior to use. CFSE-labeled CD5-selected splenic T cells from naïve C57BL/6J mice were obtained identically as for adoptive cell transfer, and 5×10^4 cells incubated with coated plates in the presence of splicing inhibitor drugs at the indicated concentrations, followed by analysis by standard flow cytometry on day 3. Of note, for RNA-seq analyses, T cells were not labeled with CFSE, and underwent activation for 4 days (96 hours) in the presence of various splicing modulator drugs to harmonize experimental conditions with RNA-seq analyses of tumors treated with splicing inhibitors. For the RNA-seq experiments only, T cells in all conditions were also incubated with IL-2 at 50 U/mL to maximize viability and yield.

[2] = tested on: T cells stimulated with anti-CD3 and CD28 antibodies; assay: Gene expression program of activated T cells (RNA-seq); type: cell-based, mouse; conditions: ex vivo anti-CD3 and CD28 stimulation in presence of drug
Description: as §1
(§2) Bulk lung and colon were homogenized using a Qiagen TissueRuptor. For all tissues and cell types, RNA was extracted using an RNeasy kit (Qiagen, Frederick, Md.) and quantified using a NanoDrop 8000 (ThermoFisher Scientific). A minimum of 500 ng of high-quality RNA (as determined by Agilent Bioanalyzer) per sample or replicate was used for library preparation. Poly(A)-selected, strand-specific (dUTP method) Illumina libraries were prepared with a modified TruSeq protocol and sequenced on the Illumina HiSeq 2000 (˜100M 2×101 bp paired-end reads per sample or replicate).

[3] = tested on: OT-1 transgenic T cells against ovalbumin (OVA)-expressing B16-F10 cells; assay: OT-1 cytotoxicity assay; type: cell-based, mouse; conditions: 18 hours; minimal impairment at doses less than 4 μM
Description: Bulk splenocytes from OT-1 animals were cultured for three days with 100 U/mL murine IL-2 and 100 μg/mL SIINFEKL (SEQ ID NO:1) peptide to activate CD8^+ T cells. Cultures were subsequently washed thoroughly to remove ova peptide and rested for at least 24 hours prior to use. OT-1 cells were passaged in T cell media with 50 U/mL IL-2 for no more than seven days from animal sacrifice prior to use. For the cytotoxicity assay, tumor cells alone or OT-1+tumor cells (1:1 ratio) were incubated in T cell media for 18 hours under standard conditions with the indicated concentrations of splicing drugs and analyzed by flow cytometry to quantify killing. OT-1 cells and other hematopoietic cells were excluded with the use of CD45, CD3, and CD8 staining. Tumor cell viability was measured using DAPI.

[4] = tested on: 501-MEL, A375, and SK-MEL-239; assay: RNA-seq splicing analysis, human tumor cell lines; type: cell-based; conditions: identical treatment
Description: as §2
RNA-seq analysis was performed as previously described (Dvinge, H., et al. (2014). Sample processing obscures cancer-specific alterations in leukemic transcriptomes. Proc Natl Acad Sci USA 111, 16802-16807, incorporated herein by reference in its entirety). […] Aligned reads from these two mapping steps were merged to generate final BAM files for all subsequent analyses.
MISO v2.0 was used to quantify all expression of isoforms arising from exon skipping (cassette exons), competing 5′ splice site selection, competing 3′ splice site selection, and annotated intron retention. […]

[5] = Histologic evaluation of immune-related tissue toxicities; type: in vivo, mouse; conditions: tumor-bearing mice
Description: Animal tissues were fixed in 4% paraformaldehyde, decalcified (for bone), dehydrated and paraffin embedded. Blocks were sectioned and stained with hematoxylin and eosin or anti-CD8. Images were acquired using an Axio Observer A1 microscope (Carl Zeiss, Oberkochen, Germany) or scanned using an Aperio AT slide scanner (Leica Biosystems, Buffalo Grove, Ill.). Automated quantification of infiltrating CD8^+ T cells was performed using HALO software (Indica labs, Albuquerque, N. Mex.). Pathologic evaluation of immune-related tissue toxicities was performed in a blinded fashion by one of the authors who is a trained pathologist (Ben Durham, MD).

CC(C)Oc1ccc(-c2c[nH]cc2CN(C)CCN)cc1 [MS-023]
T cell apoptosis and activation markers [1]: much milder effects | genes normally upregulated upon T cell activation [2]: much milder changes | in vitro cytotoxicity of primed OT-1 T cells against OVA-expressing B16-F10 cells [3]: minimally impaired | splicing changes in human cancer cells [4]: stereotyped and pervasive splicing changes | histologic inflammation or immune infiltrates in skin, lung, gut, or liver [5]: did not result in overt histologic inflammation

NS(=O)(=O)c1ccc(S(=O)(=O)Nc2cccc3c(Cl)c[nH]c23)cc1 [indisulam]
T cell apoptosis and activation markers [1]: much milder effects | IC50 ([1]; Mus musculus, T-cell, 72 h, three days of continuous drug exposure, read-out: IC50 values, T cell proliferation following stimulation): 1 to 10 µM | genes normally upregulated upon T cell activation [2]: much milder changes | in vitro cytotoxicity of primed OT-1 T cells against OVA-expressing B16-F10 cells [3]: minimally impaired | splicing changes in human cancer cells [4]: stereotyped and pervasive splicing changes | histologic inflammation or immune infiltrates in skin, lung, gut, or liver [5]: did not result in overt histologic inflammation
